The assay addresses Mu-type opioid receptor (Homo sapiens) + Delta-type opioid receptor (Homo sapiens) (UniProt P35372+P41143). Put plainly: agonists of MOR-DOR heterodimerization, dose response, counter-screen for MC4R biased agonist project, cell-based, luminescence (AID 602264). The conditions noted are these: cell-based OPRM1-OPRD1 heterodimerization.

“And” between values parts separate entries of the source, which are not always exact repeats. Equal values may be shown once. The source made the active and inactive calls. How the calls were made is not given here.

Sequence of Mu-type opioid receptor (Homo sapiens) + Delta-type opioid receptor (Homo sapiens) (P35372 whole entry, looked up): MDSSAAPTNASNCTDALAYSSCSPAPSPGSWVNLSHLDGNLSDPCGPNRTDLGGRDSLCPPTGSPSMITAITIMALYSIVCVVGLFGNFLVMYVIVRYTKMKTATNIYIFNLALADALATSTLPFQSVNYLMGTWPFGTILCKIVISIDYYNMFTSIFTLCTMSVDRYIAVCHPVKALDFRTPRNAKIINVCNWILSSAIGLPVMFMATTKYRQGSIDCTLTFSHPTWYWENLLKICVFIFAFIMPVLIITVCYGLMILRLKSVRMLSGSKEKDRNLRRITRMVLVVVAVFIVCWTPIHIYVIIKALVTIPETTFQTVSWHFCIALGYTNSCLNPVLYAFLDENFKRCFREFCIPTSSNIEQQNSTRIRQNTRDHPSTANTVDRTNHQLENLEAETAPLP
Sequence of Mu-type opioid receptor (Homo sapiens) + Delta-type opioid receptor (Homo sapiens) (P41143 whole entry, looked up): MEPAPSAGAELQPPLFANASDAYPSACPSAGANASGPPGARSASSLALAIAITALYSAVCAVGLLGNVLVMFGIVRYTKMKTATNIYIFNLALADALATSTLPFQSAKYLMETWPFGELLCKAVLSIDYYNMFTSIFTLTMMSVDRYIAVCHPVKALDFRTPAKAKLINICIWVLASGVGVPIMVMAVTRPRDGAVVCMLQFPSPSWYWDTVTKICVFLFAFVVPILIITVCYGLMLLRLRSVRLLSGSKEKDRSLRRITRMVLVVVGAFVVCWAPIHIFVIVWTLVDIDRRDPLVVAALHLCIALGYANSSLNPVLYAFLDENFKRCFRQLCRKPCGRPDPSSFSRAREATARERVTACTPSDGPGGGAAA

As for `COc1ccc(-c2sc3ccccc3c2-c2ccc(OCCN(C)C)cc2)cc1`, the EC50 was > 92.5 µM (inactive).

Take `CCOCCCN(Cc1ccco1)C(=O)c1cc2c(=O)[nH]c3ccc(C)cc3c2s1`: the EC50 was > 64.6 µM (inactive).

`COc1ccccc1-c1cc(NC=O)c2ncc(-c3ccc(F)cc3)n2c1`: the EC50 is > 92.4 µM (inactive).

`N#C/C(=C\c1cn(CCOc2ccccc2)c2ccccc12)C(=O)NCc1ccco1`: the EC50 was > 92.5 µM (inactive).

Consider `Cc1cc(NC(=O)c2cncc(Br)c2)ccc1NC(=O)c1cc2ccccc2o1`, for which the EC50 is > 64.6 µM (inactive).

As for `CN(C)CCCN(C(=O)CCc1ccccc1)c1nc2ccc(Cl)cc2s1`, the EC50 is > 92.4 µM (inactive).

As for `CCN1CCN(Cc2ccc(NC(=O)c3ccc(C)c(NC(=O)C(=O)c4c[nH]c5ccccc45)c3)cc2C(F)(F)F)CC1`, the EC50 is > 10.3 µM (inactive) and > 92.5 µM (inactive).

`CC(=O)Nc1cc(-c2cccc(C(=O)NCCN(C)C)c2)cn2c(-c3cccc(C(F)(F)F)c3)cnc12`: the EC50 was > 92.5 µM (inactive).

Consider `CCOc1ccc(Cn2c3ccc(OC)cc3c3nc4ccccc4nc32)cc1`, for which the EC50 was > 64.6 µM (inactive).

Regarding `CCOc1ccc(Cn2c3ccc(OC)cc3c3nc4ccccc4nc32)cc1OC`, the EC50 was > 64.6 µM (inactive).

For `Cc1ccc(C(=O)NCCNc2nc3cc(C)c(C)cc3cc2C)cc1`, the EC50 was > 64.6 µM (inactive).

For the molecule `Cc1ccc(NC(=O)c2ncn(CCCN3CCN(Cc4cccc5ccccc45)CC3)n2)cc1C`, the EC50 was > 92.5 µM (inactive).

In the case of `CCCCCCCCNS(=O)(=O)CCNCCc1ccccc1`, the EC50 is > 92.4 µM (inactive).

Take `CN(C)CCOc1ccc(-c2c(-c3ccsc3)sc3ccccc23)cc1`: the EC50 is > 92.5 µM (inactive).

Take `COc1ccc2[nH]c3c(C)c4ccncc4c(C)c3c2c1`: the EC50 is > 64.7 µM (inactive).

On to `Cc1cc(C)nc(Nc2nc(C(N)Cc3ccc(Cl)cc3)cs2)n1` (centres undefined), for which the EC50 is > 92.5 µM (inactive).

With `COc1cc(/C=C2\Oc3ccc(C#Cc4ccc(O)cc4)cc3C2=O)cc(OC)c1`, the EC50 was > 92.5 µM (inactive).

Consider `CCCCNc1c(-c2cccc(-c3cc(C(C)=O)cs3)c2)nc2ccc(C)cn12`, for which the EC50 is > 64.6 µM (inactive).

`CC1(C)Oc2ccc3ccc(=O)oc3c2/C(=C/Nc2ccc(O)cc2)C1=O`: the EC50 is > 64.6 µM (inactive).

Take `O=C(N/N=C/c1ccc(OCc2ccccc2)cc1)c1cccs1`: the EC50 is > 92.5 µM (inactive).

Take `Cc1cccc(C)c1-n1cccc1/C=C1\SC(=S)N(c2cccc(C(=O)O)c2)C1=O`: the EC50 is > 92.5 µM (inactive).

As for `Cc1ccc(CN2CCC(c3cc(-c4ccc(Cl)cc4)n[nH]3)CC2)cc1`, the EC50 was > 92.5 µM (inactive).

For the molecule `COc1ccc2nc(NC(=O)CSc3nc4cccnc4n3C)sc2c1`, the EC50 is > 64.6 µM (inactive).

As to `Cc1ccc(-c2nnc(-c3ccc(NC(=O)Cc4cccs4)cc3)o2)cc1`, the EC50 was > 64.6 µM (inactive).

For `O=C(Nc1nc2ccc(SC(F)F)cc2s1)c1ccc(NS(=O)(=O)c2ccc(F)c(F)c2)cc1`, the EC50 was > 64.6 µM (inactive).

As for `COc1cc2nc(Nc3ccc(C)c(Cl)c3)nc(N)c2cc1OC`, the EC50 is > 92.5 µM (inactive).

In the case of `Cc1c(CN2CCC(CO)(CCOc3ccccc3)CC2)[nH]c2c(Cl)cccc12`, the EC50 is > 92.5 µM (inactive).

In the case of `Cc1cc(C)c2sc(N(CCCN(C)C)C(=O)COc3ccc(Cl)cc3)nc2c1`, the EC50 is > 92.5 µM (inactive).

For `CC(=O)c1cccc(-c2cnc3c(NC=O)cc(-c4ccc(N(C)C)cc4)cn23)c1`, the EC50 is > 64.6 µM (inactive).

As to `CCOC(=O)c1ccc(-c2ccc(/C=C(\C#N)C(=O)NCc3cccs3)o2)cc1`, the EC50 was > 64.6 µM (inactive).

As to `CCN1CCN(Cc2ccc(NC(=O)c3cc(NC(=O)C(=O)c4c[nH]c5ccccc45)cc(OC)c3)cc2C(F)(F)F)CC1`, the EC50 is > 92.5 µM (inactive).

Take `COc1ccc(CNCCc2ccc(Cl)cc2)cc1OCc1ccccc1`: the EC50 is > 92.5 µM (inactive).

For the molecule `COc1ccc(-c2cc(NC(C)=O)c3ncc(-c4ccc(F)cc4)n3c2)cc1OC`, the EC50 was > 64.6 µM (inactive).

With `c1ccc(-c2sc3ccccc3c2-c2ccc(OCCN3CCCC3)cc2)cc1`, the EC50 is > 92.5 µM (inactive).

Consider `COc1ccc(NC(=O)Nc2nc(C(N)Cc3ccc(C(F)(F)F)cc3)cs2)cc1` (centres undefined), for which the EC50 was > 64.6 µM (inactive).

Consider `Cc1cc(N2CCN(C(=O)c3ccco3)CC2)n2nc(-c3cccc(Cl)c3)cc2n1`, for which the EC50 was > 64.6 µM (inactive).

`N#C/C(=C\c1ccc(-c2ccc(F)cc2)o1)C(=O)Nc1nc(-c2cccs2)cs1`: the EC50 was > 64.6 µM (inactive).

With `O=C1OC(c2ccccc2)(c2ccc(O)cc2)c2ccccc21` (centres undefined), the EC50 was > 92.5 µM (inactive).

As for `COc1cc(O)c(CC=C(C)C)c(O)c1C(=O)CCc1ccc(O)cc1`, the EC50 is > 64.6 µM (inactive).

As to `Cc1ccccc1NC(=O)c1ccc(COc2ccc3c(C)cc(=O)oc3c2)cc1`, the EC50 is > 64.6 µM (inactive).

For the molecule `COc1cc(C(=O)Nc2nnc(-c3sccc3C)s2)cc(OC)c1OC`, the EC50 was > 92.5 µM (inactive).

As to `CCOc1ccc(NC(=S)NC(=O)/C=C/c2ccc(C)cc2)c([N+](=O)[O-])c1`, the EC50 is > 64.6 µM (inactive).

In the case of `CC(O)CC(=O)OC[C@]12CC[C@H]3[C@@](C)(CC[C@H]4C(C)(C)CCC[C@]34C)[C@@H]1CC(C1=CC(=O)OC1O)O2` (some centres undefined), the EC50 was > 64.6 µM (inactive).

In the case of `O=C1C2=C(NC(=S)NC2c2ccc(Cl)cc2)NC(c2ccc(Cl)cc2)N1c1ccc(Cl)cc1` (centres undefined), the EC50 result was “inactive”.

With `C/C(=N\NC(=O)COc1cccc2ccccc12)c1cccs1`, the EC50 was > 64.6 µM (inactive).

Turning to `CC(C)CC(N)c1csc(Nc2ccc(C(F)(F)F)cn2)n1` (centres undefined), the EC50 is > 92.5 µM (inactive).

For `COc1ccc(-n2nc(C(=O)NCC(=O)Nc3ccccn3)c3ccccc3c2=O)cc1Cl`, the EC50 is > 64.6 µM (inactive).

Take `Cc1cc(C)c(CN2CCN(CCCn3cnc(C(=O)Nc4ccc(C)c(C)c4)n3)CC2)c(C)c1`: the EC50 was > 92.5 µM (inactive).

Regarding `CCc1ccc(CCC(=O)Nc2ncc(Cc3ccccc3Cl)s2)o1`, the EC50 is > 92.5 µM (inactive).

As to `CC(=O)Nc1cc(-c2ccc(C(=O)N3CCOCC3)cc2)cn2c(-c3ccccc3)cnc12`, the EC50 is > 92.5 µM (inactive).

In the case of `COc1ccccc1-c1cc(NC=O)c2ncc(-c3cccc(C(F)(F)F)c3)n2c1`, the EC50 is > 64.6 µM (inactive).

In the case of `CC1CCC(C(C)C)C(OC(=O)C[n+]2cc(-c3ccc(Cl)cc3)n3c2CCCCC3)C1` (centres undefined), the EC50 is > 92.5 µM (inactive).

`CC(=O)Nc1cc(-c2ccccc2)cn2c(-c3cccc(C(C)=O)c3)cnc12`: the EC50 was > 64.6 µM (inactive).

For `Cc1ccc2nc(Nc3ccc4[nH]c(=O)[nH]c4c3)c(-n3nc(C)cc3C)nc2c1`, the EC50 is > 64.6 µM (inactive).

Turning to `COc1cccc(-c2cnc3c(NC=O)cc(-c4cccc(C(=O)N(C)C)c4)cn23)c1`, the EC50 is > 64.6 µM (inactive).

On to `O=C(N/N=C/c1c[nH]c2ccccc12)C1CC1(c1ccccc1)c1ccccc1` (centres undefined), for which the EC50 was > 92.5 µM (inactive).

Consider `CCN1CCN(Cc2ccc(NC(=O)c3cc(NC(=O)c4cc5cccc(OC)c5o4)cc(OC)c3)cc2C(F)(F)F)CC1`, for which the EC50 was > 64.6 µM (inactive).

`Cc1cc(C)c2sc(N(CCCN(C)C)C(=O)c3ccc(Br)s3)nc2c1`: the EC50 is > 92.5 µM (inactive).

For `Cc1cccnc1C(NC(=O)C1CCN(CCOc2ccc(Cl)cc2Cl)CC1)c1ccc(Cl)cc1` (centres undefined), the EC50 result is “inactive”.

For `Oc1ccc(N2CCN(c3ncnc4sc(-c5ccccc5)cc34)CC2)cc1`, the EC50 was > 92.4 µM (inactive).

`COc1ccccc1NC(=O)Nc1nc(C(N)Cc2ccc(Cl)cc2)cs1` (centres undefined): the EC50 was > 92.5 µM (inactive).

Take `COc1cccc(-c2sc3ccccc3c2-c2ccc(OCCN(C)C)cc2)c1`: the EC50 is > 64.6 µM (inactive).

Consider `COc1ccc(C(NC(=O)C2CCN(CCOc3ccc(Cl)cc3Cl)CC2)c2ccccc2C)cn1` (centres undefined), for which the EC50 is > 64.6 µM (inactive).

As for `CCOC(=O)C(=CNc1ccc2c(c1)nnn2-c1ccc(Cl)cc1)C(=O)OCC`, the EC50 was > 64.6 µM (inactive).

For the molecule `Clc1ccc(C[n+]2c(-c3ccccc3)cc(-c3ccccc3)cc2-c2ccccc2)cc1`, the EC50 is > 92.5 µM (inactive).

For the molecule `CCn1c(SCC(=O)Nc2ccc(C(C)=O)cc2)nc2nc3c(cc2c1=O)CCCC3`, the EC50 is > 64.6 µM (inactive).

For `O=C(NC(c1ccc(Cl)cc1)c1cccnc1)C1CCN(CCOc2ccc(Cl)cc2Cl)CC1` (centres undefined), the EC50 is > 92.4 µM (inactive).

As to `Cc1cccnc1C(c1ccc(F)cc1)N(C)C(=O)C1CCN(CCOc2ccc(Cl)cc2Cl)CC1` (centres undefined), the EC50 was > 92.5 µM (inactive).

In the case of `Cc1ccc(NC(=O)c2ccccc2OCC(=O)c2ccc(F)cc2)cc1`, the EC50 is > 92.5 µM (inactive).

Consider `N#Cc1sc2nc(-c3cccs3)cc(-c3ccc(F)cc3)c2c1N`, for which the EC50 was > 92.5 µM (inactive).

With `Cc1ccc(C(=O)Cn2c(C(=O)/C=C/c3ccccc3)nc3ccccc32)cc1`, the EC50 was > 64.6 µM (inactive).

Consider `N#C/C(=C\c1cn(CCOc2ccccc2F)c2ccccc12)C(=O)NCc1cccs1`, for which the EC50 is > 92.4 µM (inactive).

As for `CCN1C(=O)/C(=C2/Sc3ccc(OC)cc3N2C)SC1=Nc1cccc(O)c1`, the EC50 is > 92.5 µM (inactive).

With `CN(C)CCNC(=O)c1cccc(-c2cnc3c(NC=O)cc(-c4cccc(C(F)(F)F)c4)cn23)c1`, the EC50 was > 64.6 µM (inactive).

Regarding `CCOc1cc(NC(=O)c2cccs2)c(OCC)cc1NC(=O)c1ccco1`, the EC50 is > 92.3 µM (inactive).

As for `COc1ccccc1-c1cc(NC(C)=O)c2ncc(-c3ccccc3)n2c1`, the EC50 was > 92.4 µM (inactive).

In the case of `CCCCCCOc1ccc(/C(C)=N/NC2=NCCN2)cc1`, the EC50 was > 92.4 µM (inactive).

On to `CC(=O)c1cccc(-c2cnc3c(NC=O)cc(-c4ccccc4F)cn23)c1`, for which the EC50 is > 64.6 µM (inactive).

With `COc1cc(-c2cc(NC=O)c3ncc(-c4cccc(C(F)(F)F)c4)n3c2)cc(OC)c1OC`, the EC50 is > 64.6 µM (inactive).
